According to paper PMC8151276, “An Integrated Approach toward NanoBRET Tracers for Analysis of GPCR Ligand Engagement” (Molecules, 2021):

How the values were obtained:
Assay type in all cases: binding
CCR7 = molecular target: T1, CCR7 (Homo sapiens, UniProt P32248); test: NanoBRET screen HiBiT-CCR7 in HEK293
T1 construct: purchased Promega (in-house HiBiT-GPCR construct library, NanoBRET)
T1 sequence (P32248 25-378): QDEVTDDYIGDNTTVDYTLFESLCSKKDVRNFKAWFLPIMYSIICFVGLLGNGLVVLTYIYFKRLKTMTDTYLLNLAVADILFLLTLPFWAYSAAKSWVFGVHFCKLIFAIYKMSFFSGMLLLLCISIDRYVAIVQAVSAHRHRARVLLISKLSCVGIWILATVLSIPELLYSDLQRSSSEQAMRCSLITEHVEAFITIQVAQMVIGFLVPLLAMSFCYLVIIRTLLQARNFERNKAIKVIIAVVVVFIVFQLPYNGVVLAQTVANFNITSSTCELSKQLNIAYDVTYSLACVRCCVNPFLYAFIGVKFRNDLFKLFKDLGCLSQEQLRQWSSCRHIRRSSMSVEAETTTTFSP
Protocol: (§1) Each tracer candidate was screened across the entire library of HiBiT-GPCR constructs using NanoBRET as the detection modality. As depicted in Figure 4A, the specificity of interactions was evaluated through decrease in BRET due to competitive displacement of a bound tracer by excess parental compound. Each tracer was analyzed for binding to each HiBiT-GPCR fusion in the absence and in the presence of competing parental compound. Briefly, HEK293 cells were transfected with HiBiT-GPCR constructs diluted into promoterless DNA to reduce expression and maximize translocation to the cell surface. Each tracer candidate was then screened at concentrations of 1 μM and 0.1 μM across cells expressing these fusions. Cells were treated for 1.5 h with tracer either alone or in the presence of 20 μM competing parental compound (i.e., control). BRET was measured upon addition of purified LgBiT and subsequent complementation with HiBiT genetically fused to a GPCR. The specificity of interactions was assessed through a decrease in BRET signal due to competitive displacement of the bound tracer. To further gauge the robustness of these interactions, the fold response over the control (i.e., BRETtracer/BRETcontrol) was calculated. We chose a 1.5-fold response, which translates to ≥7-fold signal over noise as the minimal threshold required to score an interaction as positive. […]. Below we highlight the screening results obtained for our exemplary fluorescent tracers based on Clozapine, Amitriptyline and AZD1283.
(§2) HiBiT-GPCR DNA constructs were diluted in 10 mM Tris pH 8 to a final concentration of 0.01 μg/μL, arrayed in 96-well plates and stored at −20 °C. For transfection, HEK293 cells were suspended in Opti-MEM (without phenol red) supplemented with 2% fetal bovine serum (Seradigm) and 100 units/mL penicillin–streptomycin (Gibco) at a final concentration of 220,000 cells/mL and dispensed into white 96-well plates at 90 μL/well. Subsequent transfections and screens were carried using an Agilent Bravo Automated Liquid Handling Platform. First, the 96-well HiBiT DNA arrays were diluted 25-fold in Opti-MEM (without serum or phenol red) to a final concentration of 0.0004 μg/μL and 20 μL of the diluted DNAs were transferred into new 96-well plates. Next, promoterless carrier DNA (1 μg/μL) was diluted 25-fold (0.04 μg/μL) and then dispensed into the diluted arrays at 20 μL/well. Following brief mixing, Viafect transfection reagent (Promega) diluted 16-fold into Opti-MEM was dispensed into the plates at 40 μL/well. After mixing by pipetting, plates were incubated for 10 min on the pipetting station deck. The DNA-transfection reagent complexes were then added to plates containing cells. To facilitate the screen, 10 μL of DNA-transfection reagent complexes were added in duplicates to the top 4 and bottom 4 rows, resulting in two identical 48-well arrays per plate. Plates with transfected cells were incubated for 18–20 h at 37 °C/5% CO2. A screen of each tracer across the entire library using two different concentrations requires duplicate plates of transfected cells. Depending on the number of tracers being screened, transfections can be scaled up using the same ratios. The next day, for each tracer, four 20× screening solutions in tracer dilution buffer (Promega) were prepared: two duplicates at final concentration of 20 μM and two duplicates at a final concentration of 2 μM. A competing unmodified compound was added to one of each duplicate at a final concentration of 400 μM. The four resulting solutions were diluted 4-fold in Opti-MEM without serum or phenol red to generate 5× solutions (5 µM and 0.5 µM tracer +/− 100 μM competing compound). To screen the library, a BioTek MultiFlo FX liquid dispenser was used to dispense 22.5 µL of tracer solution to the top 4 rows and 22.5 µL tracer + competing compound solution to the 4 bottom rows. Plates were briefly mixed on an orbital shaker and incubated for 1.5 h at room temperature. […]

CXCR2 = molecular target: T2, CXCR2 (Homo sapiens, UniProt P25025); test: NanoBRET screen HiBiT-CXCR2 in HEK293
T2 construct: purchased Promega (in-house HiBiT-GPCR construct library, NanoBRET)
T2 sequence (P25025 1-360): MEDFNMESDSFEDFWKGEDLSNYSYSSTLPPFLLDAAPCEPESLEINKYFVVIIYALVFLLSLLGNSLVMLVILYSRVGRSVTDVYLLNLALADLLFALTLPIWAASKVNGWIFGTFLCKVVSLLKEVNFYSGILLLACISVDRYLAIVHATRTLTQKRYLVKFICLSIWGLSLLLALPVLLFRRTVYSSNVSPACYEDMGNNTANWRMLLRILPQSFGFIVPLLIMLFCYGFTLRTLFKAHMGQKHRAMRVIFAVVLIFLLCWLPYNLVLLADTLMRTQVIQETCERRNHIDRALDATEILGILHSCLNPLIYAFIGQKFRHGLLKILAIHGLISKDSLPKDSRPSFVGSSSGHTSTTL
Protocol: as §1, §2

PTAFR = molecular target: T3, PTAFR (Homo sapiens, UniProt P25105); test: NanoBRET screen HiBiT-PTAFR in HEK293
T3 construct: purchased Promega (in-house HiBiT-GPCR construct library, NanoBRET)
Protocol: as §1, §2

BRS3 = molecular target: T4, BRS3 (Homo sapiens, UniProt P32247); test: NanoBRET screen HiBiT-BRS3 in HEK293
T4 construct: purchased Promega (in-house HiBiT-GPCR construct library, NanoBRET)
T4 sequence (P32247 1-399): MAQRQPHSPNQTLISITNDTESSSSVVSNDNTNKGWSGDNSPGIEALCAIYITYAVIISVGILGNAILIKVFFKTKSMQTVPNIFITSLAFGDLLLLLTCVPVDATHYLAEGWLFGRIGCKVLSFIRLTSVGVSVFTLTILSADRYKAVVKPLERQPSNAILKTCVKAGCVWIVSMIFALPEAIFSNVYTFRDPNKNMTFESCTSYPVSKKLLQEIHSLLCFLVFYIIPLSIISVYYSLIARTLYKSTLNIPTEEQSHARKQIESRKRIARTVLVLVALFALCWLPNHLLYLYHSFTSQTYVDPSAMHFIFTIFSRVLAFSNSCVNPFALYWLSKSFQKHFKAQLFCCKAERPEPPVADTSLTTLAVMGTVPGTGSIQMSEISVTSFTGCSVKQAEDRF
Protocol: as §1, §2

RXFP2 = molecular target: T5, RXFP2 (Homo sapiens, UniProt Q8WXD0); test: NanoBRET screen HiBiT-RXFP2 in HEK293; settings: RXFP2
T5 construct: purchased Promega (in-house HiBiT-GPCR construct library, NanoBRET)
Protocol: as §1, §2

NPBWR2 = molecular target: T6, NPBWR2 (Homo sapiens, UniProt P48146); test: NanoBRET screen HiBiT-NPBWR2 in HEK293; settings: NPBWR2
T6 construct: purchased Promega (in-house HiBiT-GPCR construct library, NanoBRET)
Protocol: as §1, §2

T3 sequence (P25105 whole entry): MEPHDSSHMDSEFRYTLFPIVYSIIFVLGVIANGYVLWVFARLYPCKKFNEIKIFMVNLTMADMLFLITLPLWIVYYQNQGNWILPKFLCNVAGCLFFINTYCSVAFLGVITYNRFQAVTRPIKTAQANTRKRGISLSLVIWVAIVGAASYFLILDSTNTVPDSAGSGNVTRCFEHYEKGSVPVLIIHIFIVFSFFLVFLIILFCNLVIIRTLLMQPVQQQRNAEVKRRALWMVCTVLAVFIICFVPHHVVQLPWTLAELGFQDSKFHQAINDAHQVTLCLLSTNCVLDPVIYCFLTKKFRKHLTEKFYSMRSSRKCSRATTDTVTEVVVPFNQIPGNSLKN
T5 sequence (Q8WXD0 whole entry): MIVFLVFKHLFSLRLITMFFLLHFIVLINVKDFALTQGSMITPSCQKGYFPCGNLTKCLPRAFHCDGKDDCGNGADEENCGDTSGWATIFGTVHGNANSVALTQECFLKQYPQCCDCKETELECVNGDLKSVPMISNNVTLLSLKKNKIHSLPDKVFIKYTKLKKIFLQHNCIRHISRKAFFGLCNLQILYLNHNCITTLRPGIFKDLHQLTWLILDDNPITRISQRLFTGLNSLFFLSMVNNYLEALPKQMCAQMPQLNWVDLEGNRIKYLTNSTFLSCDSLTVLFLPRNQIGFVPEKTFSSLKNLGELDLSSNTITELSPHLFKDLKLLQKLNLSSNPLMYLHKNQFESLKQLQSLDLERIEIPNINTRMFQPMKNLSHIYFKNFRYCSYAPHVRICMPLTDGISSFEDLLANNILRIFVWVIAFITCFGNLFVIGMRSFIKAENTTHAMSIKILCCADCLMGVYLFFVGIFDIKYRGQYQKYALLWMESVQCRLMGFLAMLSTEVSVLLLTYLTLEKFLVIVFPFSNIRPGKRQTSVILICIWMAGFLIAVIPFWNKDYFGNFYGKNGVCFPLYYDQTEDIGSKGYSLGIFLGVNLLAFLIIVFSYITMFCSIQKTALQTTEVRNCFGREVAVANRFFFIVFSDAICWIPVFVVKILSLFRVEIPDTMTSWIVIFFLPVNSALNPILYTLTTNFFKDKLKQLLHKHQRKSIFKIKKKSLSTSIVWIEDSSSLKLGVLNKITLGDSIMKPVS
T6 sequence (P48146 whole entry): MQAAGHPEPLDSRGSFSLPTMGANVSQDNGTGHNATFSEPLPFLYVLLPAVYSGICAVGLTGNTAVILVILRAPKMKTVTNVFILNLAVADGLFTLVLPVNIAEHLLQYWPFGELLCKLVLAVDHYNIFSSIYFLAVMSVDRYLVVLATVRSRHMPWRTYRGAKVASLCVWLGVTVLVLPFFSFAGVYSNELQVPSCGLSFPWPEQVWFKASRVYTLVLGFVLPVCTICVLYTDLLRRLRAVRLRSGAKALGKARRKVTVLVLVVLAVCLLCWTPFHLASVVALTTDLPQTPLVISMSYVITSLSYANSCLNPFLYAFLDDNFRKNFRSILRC

Compound	NanoBRET Fold Response (CCR7; CCR7, tracer 0.1μM)	NanoBRET Fold Response (CCR7; CCR7, tracer 1μM)	NanoBRET Fold Response (CXCR2; CXCR2, tracer 0.1μM)	NanoBRET Fold Response (CXCR2; CXCR2, tracer 1μM)	NanoBRET Fold Response (PTAFR; PTAFR, tracer 0.1μM)	NanoBRET Fold Response (PTAFR; PTAFR, tracer 1μM)	NanoBRET Fold Response (BRS3; BRS3, tracer 0.1μM)	NanoBRET Fold Response (BRS3; BRS3, tracer 1μM)	NanoBRET Fold Response (RXFP2; tracer 0.1μM)	NanoBRET Fold Response (RXFP2; tracer 1μM)	NanoBRET Fold Response (NPBWR2; tracer 0.1μM)	NanoBRET Fold Response (NPBWR2; tracer 1μM)	further results
O=C(CCOCCOCCOCCOCCNC(=O)CCc1ccc2n1[B-](F)(F)[N+]1=C(c3ccc[nH]3)C=CC1=C2)NCCCN1CCN(C2=Nc3ccccc3Oc3ccc(Cl)cc32)CC1 [Loxapine-a-2-NB590]	1.00	1.11	1.06	0.98	1.10	1.09	0.99	1.20	0.94	0.64	1.07	0.93	–
CCCn1c(=O)c2[nH]c(-c3ccc(OCC(=O)NCCNC(=O)CCOCCNC(=O)c4ccc(CNC(=O)CCc5ccc6n5[B-](F)(F)[N+]5=C(c7ccc[nH]7)C=CC5=C6)cc4)cc3)nc2n(CCC)c1=O [XAC-3-NB590]	0.99	1.04	1.22	0.70	0.90	1.15	0.95	1.04	1.20	1.28	1.01	0.99	–
CN(C)CCC=C1c2ccccc2CCc2ccc(C(=O)NCCNC(=O)CCOCCOCCOCCOCCNC(=O)CCc3ccc4n3[B-](F)(F)[N+]3=C(c5ccc[nH]5)C=CC3=C4)cc21 [Amitriptyline-a-2-NB590]	–	–	–	–	–	–	–	–	–	–	–	–	NanoBRET Fold Response (CCR7; tracer at 0.1μM): 1.01; NanoBRET Fold Response (CCR7; tracer at 1μM): 0.99; NanoBRET Fold Response (CXCR2; tracer at 0.1μM): 0.99; NanoBRET Fold Response (CXCR2; tracer at 1μM): 1.00; NanoBRET Fold Response (PTAFR; tracer at 0.1μM): 1.10; NanoBRET Fold Response (PTAFR; tracer at 1μM): 0.90; NanoBRET Fold Response (BRS3; tracer at 0.1μM): 1.02; NanoBRET Fold Response (BRS3; tracer at 1μM): 0.99
COc1ccccc1N1CCN(CCCCN2C(=O)c3ccc(CNC(=O)CCOCCOCCOCCOCCNC(=O)CCc4ccc5n4[B-](F)(F)[N+]4=C(c6ccc[nH]6)C=CC4=C5)cc3C2=O)CC1 [NAN-190-2-NB590]	0.97	0.99	1.08	0.92	1.03	1.04	1.04	0.97	0.78	1.17	1.00	–	–
O=C(CCc1ccc2n1[B-](F)(F)[N+]1=C(c3ccc[nH]3)C=CC1=C2)NCc1ccc(C(=O)NCCOCCOCCNCC(O)COc2cccc3ccccc23)cc1 (stereo not shown) [Propranolol-3-NB590]	–	–	–	–	–	–	–	–	–	–	–	–	NanoBRET Fold Response (CCR7; CCR7, 0.1μM): 1.03; NanoBRET Fold Response (CCR7; CCR7, 1μM): 1.01; NanoBRET Fold Response (CXCR2; CXCR2, 0.1μM): 1.07; NanoBRET Fold Response (CXCR2; CXCR2, 1μM): 1.03; NanoBRET Fold Response (PTAFR; PTAFR, 0.1μM): 1.02; NanoBRET Fold Response (PTAFR; PTAFR, 1μM): 1.04; NanoBRET Fold Response (BRS3; BRS3, 0.1μM): 1.03; NanoBRET Fold Response (BRS3; BRS3, 1μM): 1.08; NanoBRET Fold Response (RXFP2; 0.1μM): 0.27; NanoBRET Fold Response (RXFP2; 1μM): 0.78; NanoBRET Fold Response (NPBWR2; 0.1μM): 1.05; NanoBRET Fold Response (NPBWR2; 1μM): 1.05
COc1ccccc1N1CCN(CCCCN2C(=O)c3ccc(CNC(=O)CCOCCNC(=O)c4ccc(CNC(=O)CCc5ccc6n5[B-](F)(F)[N+]5=C(c7ccc[nH]7)C=CC5=C6)cc4)cc3C2=O)CC1 [NAN-190-3-NB590]	1.01	1.00	1.10	0.86	1.05	1.30	0.95	1.02	0.63	0.89	0.96	0.79	–
CN(CCC=C1c2ccccc2CCc2ccccc21)C(=O)CCOCCOCCOCCOCCNC(=O)CCc1ccc2n1[B-](F)(F)[N+]1=C(c3ccc[nH]3)C=CC1=C2 [Amitriptyline-e-2-NB590]	–	–	–	–	–	–	–	–	–	–	–	–	NanoBRET Fold Response (CCR7; tracer at 1μM): 1.03; NanoBRET Fold Response (CXCR2; tracer at 1μM): 1.07; NanoBRET Fold Response (PTAFR; tracer at 1μM): 1.06
